Test results: US10988792B2, “Methods for antimicrobial resistance determination” (bioMerieux, Inc., priority 2009, dated 2021)

Columns and labels:
[1] = tested on: Twenty different strains of S. aureus (10 MRSA and 10 MSSA strains); test: BOCILLIN-FL binding to a panel of MRSA and MSSA strains; details: signal Ex490_Em510 normalized to tryptophan Ex285_Em350; 50 μM BOCILLIN-FL (0.1 ml) + 0.9 ml strain, 30 minutes at 37° C. (FIG. 4)
Description: Twenty different strains of S. aureus (10 MRSA and 10 MSSA strains, confirmed with cefoxitin discs and Vitek-2) were propagated. A loopful of growth (1 μL) was removed from 24-hour plates and suspended in BacT/ALERT SA culture media (8 ml in a glass screw-capped tube). The tubes were vortexed well and incubated at 36° C. for 6 hours. The OD of each suspension was measured at 660 nm and adjusted to approximately the same density (0.50-0.75 OD; sample #12166 was only 0.28). 50 μM BOCILLIN™-FL (0.1 ml) was placed into each of 20 labeled microfuge tubes. A sample of each strain (0.9 ml) was added to each tube, mixed, and incubated at 37° C. for 30 minutes. The reaction mixture was then removed and added to a second set of tubes containing 0.2 ml of an oil blend (1.000 part type DF immersion oil plus 0.875 part Drakeol 5 mineral oil). The tubes were centrifuged for 2 minutes at 10,000 rpm in an A-8-11 rotor (Eppendorf 5417R). The supernatant and most of the oil was aspirated with a vacuum device. The remaining oil was removed using a Gilson P200 tip and the pellet was resuspended in 100 μl PBS. The cells were transferred to an acrylic cuvette containing 3 ml PBS and read in the FluoroLog 3 system using the FluoroScan “Bocillin” points listed in Table 3. Additionally, Vitek AST cards were run on each of the 20 isolates (from the same 24 hour plates).

[2] = tested on: S. aureus strains ATCC 25923 (MSSA) and D14906 (MRSA); test: Titration of BOCILLIN-FL binding
Description: Samples of S. aureus strains ATCC 25923 (MSSA) and D14906 (MRSA) were grown in BacT/ALERT SA culture media at 37° C. for about 6 hours until an OD 660 nm of about 0.35 was reached. Dilutions of BOCILLIN™-FL (0.1 ml) were prepared in SA medium and placed into culture tubes. Samples of the bacterial suspension (0.9 ml) were added to the tubes and mixed. The tubes were capped and placed in a 37° C. incubator for 60 minutes. Samples (1.0 ml) were transferred to microfuge tubes containing 0.2 ml of the same oil blend used in Example 1, centrifuged for 1 minute, aspirated, and the pellet was resuspended in 0.1 ml PBS and then added to 3.0 ml PBS, pH 7.4 in an acrylic cuvette. The sample was scanned in the FluoroLog-3 system at an excitation wavelength of 490 nm and the fluorescence emission at 510 nm was recorded.

For `Cc1cc(C)n2c1C=C1C=CC(CCC(=O)Nc3ccc(OCC(=O)N[C@@H]4C(=O)N5[C@@H]4SC(C)(C)[C@@H]5C(=O)[O-])cc3)=[N+]1[B-]2(F)F.[Na+]` [BOCILLIN™-FL], the “BOCILLIN-FL bound by the five benzyl-penicillin sensitive strains versus the fifteen benzyl-penicillin resistant strains” value [1] was “over twice the amount”, the “Shape of the MSSA binding curve” value ([2]; MSSA strain, second order polynomial curve fit) was “biphasic” and the “Difference in binding between the MSSA and MRSA strains” value ([2]; at about 0.5 μM BOCILLIN-FL) was 4 fold. The “Difference in binding between the MSSA and MRSA strains” value ([2]; at about 5 μM BOCILLIN-FL) was 3 fold and the “BOCILLIN-FL bound by the MSSA strain, more than the MRSA strain, per cell basis” value ([2]; depending on the BOCILLIN-FL concentration, 60 minutes at 37° C. (FIG. 3)) was 2-4 fold.
